From patent US5614620A, “DNA binding proteins including androgen receptor” (Arch Development Corporation, priority 1993, dated 1997)

Columns and labels:
TR2 mRNA = TR2 mRNA level in rat ventral prostate (RNA dot hybridization and Northern blot); assay type: in vivo
Description: (§1) Because rat ventral prostate is an androgen-sensitive organ and contains the greatest amount of AR and TR2 mRNA, the effect of androgen depletion and replacement on the mRNA levels was studied by RNA dot hybridization and Northern blot analysis. […] Urol., 10:123 (1972)], was injected into normal rats for from 2 to 6 days. TR2 mRNA levels were then measured by dot hybridization as described above.

AR mRNA = AR mRNA level in ventral prostate of castrated rats (RNA dot hybridization and Northern blot); assay type: in vivo; conditions: 5 mg/rat/day
Description: as §1

79 kD hAR protein = molecular target: T1, 79 kD hAR protein (Homo sapiens, UniProt P10275); experiment: competition of non-radioactive steroids with [^3 H] R1881 binding to hAR made in reticulocyte lysate (hydroxylapatite-filter method)
T1 construct: T7 transcript translated in rabbit reticulocyte lysate; untagged
T1 sequence (P10275 191-920): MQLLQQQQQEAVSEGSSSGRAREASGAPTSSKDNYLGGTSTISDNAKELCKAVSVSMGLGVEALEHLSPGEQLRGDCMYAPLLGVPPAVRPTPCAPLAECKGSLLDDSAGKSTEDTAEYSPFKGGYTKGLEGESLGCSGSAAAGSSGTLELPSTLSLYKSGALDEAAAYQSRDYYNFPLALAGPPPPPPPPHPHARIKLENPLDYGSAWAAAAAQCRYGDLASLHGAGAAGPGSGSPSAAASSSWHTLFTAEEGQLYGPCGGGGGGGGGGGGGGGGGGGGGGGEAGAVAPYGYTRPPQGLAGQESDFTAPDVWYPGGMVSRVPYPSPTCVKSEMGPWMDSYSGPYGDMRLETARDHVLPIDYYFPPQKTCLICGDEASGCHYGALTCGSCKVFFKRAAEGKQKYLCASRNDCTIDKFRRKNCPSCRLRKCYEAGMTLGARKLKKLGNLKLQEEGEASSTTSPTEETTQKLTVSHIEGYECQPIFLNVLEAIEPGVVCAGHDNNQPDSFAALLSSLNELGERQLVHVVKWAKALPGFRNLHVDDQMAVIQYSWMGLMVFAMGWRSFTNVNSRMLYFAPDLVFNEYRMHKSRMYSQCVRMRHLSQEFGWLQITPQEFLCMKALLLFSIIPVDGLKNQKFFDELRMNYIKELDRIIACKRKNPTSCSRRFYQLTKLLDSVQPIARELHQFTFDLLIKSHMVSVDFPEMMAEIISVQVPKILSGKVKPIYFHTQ

AR = conditions: Liao, et al. (1973); cited from earlier work
ventral prostate = conditions: castrated rats; Neri, et al.; cited from earlier work
human androgen receptor = conditions: Govindan, et al.; cited from earlier work
[1] = molecular target: AR of rat ventral prostate; conditions: read-out: binding constant reported previously, Schilling, et al.; cited from earlier work
hAR in NIH 3T3 cells = conditions: 6 of about 100 individual cell lines
Description: The expression of cloned AR-genes was achieved as follows in a eukaryotic system. NIH 3T3 cells, contact-inhibited cells established from NIH Swiss mouse embryo, were co-transfected with hAR cDNA inserted into pBPVMTH vectors as described by Gorman, "DNA Cloning", 2:143-190 D. M. Glover, ed.; (Oxford, Washington, D.C. 1985). Transfected cells were cloned and grown in multiple-well cell culture plates. About 100 individual cell lines were isolated.

C[C@]12CCC(=O)C[C@@H]1CC[C@@H]1[C@@H]2CC[C@]2(C)[C@@H](O)CC[C@@H]12 [5α-dihydrotestosterone, 17β-hydroxy-5α-androstan-3-one]
TR2 mRNA level (TR2 mRNA; castrated rats, injection, 5 mg/rat/day): reduced the TR2 mRNA to the levels of normal rats
AR mRNA level (AR mRNA): reduced the AR mRNA level to that of normal rats

C[C@]12CCC(=O)C=C1CC[C@@H]1[C@@H]2[C@@H](O)C[C@@]2(C)[C@H]1CC[C@]2(O)C(=O)CO [Hydrocortisone]
competition with [^3 H] R1881 binding (in words) (79 kD hAR protein; 79 kD protein, reticulocyte lysate): did not compete well
remaining activity at 0.05 µM (79 kD hAR protein; read-out: [^3 H] R1881-bound (% of control)): 90%

C[C@]1(O)CC[C@H]2[C@@H]3CCC4=CC(=O)CCC4=C3C=C[C@@]21C [R1881, 17α-methyl-17β-hydroxy-estra-4,9,11-trien-3-one]
[^3 H] R1881-bound (% of control) (79 kD hAR protein; reticulocyte lysate har, 0.05 µM): 10 % of control
AR binding affinity (in words) (AR): binds AR with high affinity

CC(C)C(=O)Nc1ccc([N+](=O)[O-])c(C(F)(F)F)c1 [Flutamide]
effect on 5α-dihydrotestosterone action on ventral prostate weights (ventral prostate): antagonizes the effects of 5α-dihydrotestosterone on the ventral prostate weights in castrated rats
TR2 mRNA level (TR2 mRNA; normal rats, injected for from 2 to 6 days): increased TR2 mRNA levels

C[C@]12CCC(=O)C[C@@H]1CC[C@@H]1[C@@H]2CC[C@]2(C)[C@@H](O)CC[C@@H]12 [DHT, dihydrotestosterone]
binding of tritium-labelled DHT (in words) (human androgen receptor): with high affinity and specificity

C[C@]1(O)CC[C@H]2[C@@H]3CCC4=CC(=O)CCC4=C3C=C[C@@]21C [[^3 H] R1881, 17α[^3 H]-methyl-17β-hydroxy-estra-4,9,11-trien-3-one]
Kd [1]: 0.65 nM
[^3 H] R1881-binding activity relative to cells transfected with pSV2 vector alone (hAR in NIH 3T3 cells): at least 4 fold
